Measured values published in paper PMC12090182, “Repurposing of the RIPK1-Selective Benzo[1,4]oxazepin-4-one Scaffold for the Development of a Type III LIMK1/2 Inhibitor” (ACS Chemical Biology, 2025).

Tested on: MRC-9 cells
Assay: Multiplex high-content viability assessment
Format: cell-based
Conditions: for Cell count normalized to cells treated with DMSO control / Cell count per well / Population Fragmented Nuclei (%) / Population Healthy Nuclei (%) / Population Pyknosed Nuclei (%) / Population apoptotic cell (%) / Population cell that influence microtubule strucutre (%) / Population with increased mitochondrial mass (%) / Population with membrane disruption (%): human fibroblast
Description: To assess the influence on cell health, a high-content screening in living cells called the multiplex high-content assay, as described previously by Tjaden et al., was performed.[38] In brief, HEK293T (ATCC CRL-1573) and U2OS (ATCCHTB-96) were cultured in DMEM plus L-glutamine (high glucose) supplemented by 10% FBS (Gibco) and penicillin/streptomycin (Gibco). MRC-9 fibroblasts ([…]) were cultured in EMEM plus L-glutamine supplemented by 10% FBS (Gibco) and penicillin/streptomycin (Gibco). Cells were seeded at a density of 1250 cells per well in a 384-well plate in a culture medium (cell culture microplate, PS, f-bottom, μClear, 781091, Greiner), with a volume of 50 μL per well. All outer wells were filled with 100 μL of PBS buffer (Gibco). […] The cell shape and fluorescence were measured before treatment and 12, 24, and 48 h after compound treatment using the CQ1 high-content confocal microscope (Yokogawa, Musashino, Japan). […] The compounds were tested at 1 and 10 μM, respectively. Acquired images of the cells were processed using Yokogawa CellPathfinder software (v3.04.02.02). […] Results were normalized to cells exposed to 0.1% DMSO. All compounds were tested in biological duplicates, and SEM (standard error of mean) was calculated of biological duplicates.

CN1C(=O)[C@@H](N2CCc3c(nn(Cc4ccccc4)c3C(N)=O)C2=O)COc2cc(Cl)ccc21 [Compound 10, (S)-2-benzyl-6-(8-chloro-5-methyl-4-oxo-2,3,4,5-tetrahydrobenzo[b][1,4]oxazepin-3-yl)-7-oxo-4,5,6,7-tetrahydro-2H-pyrazolo[3,4-c]pyridine-3-carboxamide]
Cell count normalized to cells treated with DMSO control (1 µM, 0 h, replicate 1): 0.9542
Cell count per well (1 µM, 0 h, replicate 1): 143
Population Fragmented Nuclei (%) (1 µM, 0 h, replicate 1): 19.86%
Population Healthy Nuclei (%) (1 µM, 0 h, replicate 1): 56.74%
Population Pyknosed Nuclei (%) (1 µM, 0 h, replicate 1): 23.40%
Population apoptotic cell (%) (1 µM, 0 h, replicate 1): 42.42%
Population cell that influence microtubule strucutre (%) (1 µM, 0 h, replicate 1): 27.50%
Population with increased mitochondrial mass (%) (1 µM, 0 h, replicate 1): 11.25%
Population with membrane disruption (%) (1 µM, 0 h, replicate 1): 1.25%
Cell count normalized to cells treated with DMSO control (1 µM, 0 h, replicate 2): 1.071
Cell count per well (1 µM, 0 h, replicate 2): 191
Population Fragmented Nuclei (%) (1 µM, 0 h, replicate 2): 17.68%
Population Healthy Nuclei (%) (1 µM, 0 h, replicate 2): 56.35%
Population Pyknosed Nuclei (%) (1 µM, 0 h, replicate 2): 25.97%
Population apoptotic cell (%) (1 µM, 0 h, replicate 2): 19.15%
Population cell that influence microtubule strucutre (%) (1 µM, 0 h, replicate 2): 32.35%
Population with increased mitochondrial mass (%) (1 µM, 0 h, replicate 2): 4.90%
Population with membrane disruption (%) (1 µM, 0 h, replicate 2): 4.90%
Cell count normalized to cells treated with DMSO control (1 µM, 12 h, replicate 1): 0.9165
Cell count per well (1 µM, 12 h, replicate 1): 138
Population Fragmented Nuclei (%) (1 µM, 12 h, replicate 1): 13.43%
Population Healthy Nuclei (%) (1 µM, 12 h, replicate 1): 56.72%
Population Pyknosed Nuclei (%) (1 µM, 12 h, replicate 1): 29.85%
Population apoptotic cell (%) (1 µM, 12 h, replicate 1): 55.00%
Population cell that influence microtubule strucutre (%) (1 µM, 12 h, replicate 1): 31.58%
Population with increased mitochondrial mass (%) (1 µM, 12 h, replicate 1): 3.95%
Population with membrane disruption (%) (1 µM, 12 h, replicate 1): 0.00%
Cell count normalized to cells treated with DMSO control (1 µM, 12 h, replicate 2): 1.033
Cell count per well (1 µM, 12 h, replicate 2): 172
Population Fragmented Nuclei (%) (1 µM, 12 h, replicate 2): 18.52%
Population Healthy Nuclei (%) (1 µM, 12 h, replicate 2): 51.23%
Population Pyknosed Nuclei (%) (1 µM, 12 h, replicate 2): 30.25%
Population apoptotic cell (%) (1 µM, 12 h, replicate 2): 36.73%
Population cell that influence microtubule strucutre (%) (1 µM, 12 h, replicate 2): 48.19%
Population with increased mitochondrial mass (%) (1 µM, 12 h, replicate 2): 3.61%
Population with membrane disruption (%) (1 µM, 12 h, replicate 2): 9.64%
Cell count normalized to cells treated with DMSO control (1 µM, 24 h, replicate 1): 0.9086
Cell count per well (1 µM, 24 h, replicate 1): 137
Population Fragmented Nuclei (%) (1 µM, 24 h, replicate 1): 12.03%
Population Healthy Nuclei (%) (1 µM, 24 h, replicate 1): 64.66%
Population Pyknosed Nuclei (%) (1 µM, 24 h, replicate 1): 23.31%
Population apoptotic cell (%) (1 µM, 24 h, replicate 1): 64.52%
Population cell that influence microtubule strucutre (%) (1 µM, 24 h, replicate 1): 32.56%
Population with increased mitochondrial mass (%) (1 µM, 24 h, replicate 1): 8.14%
Population with membrane disruption (%) (1 µM, 24 h, replicate 1): 2.33%
Cell count normalized to cells treated with DMSO control (1 µM, 24 h, replicate 2): 1.049
Cell count per well (1 µM, 24 h, replicate 2): 173
Population Fragmented Nuclei (%) (1 µM, 24 h, replicate 2): 26.25%
Population Healthy Nuclei (%) (1 µM, 24 h, replicate 2): 51.25%
Population Pyknosed Nuclei (%) (1 µM, 24 h, replicate 2): 22.50%
Population apoptotic cell (%) (1 µM, 24 h, replicate 2): 47.22%
Population cell that influence microtubule strucutre (%) (1 µM, 24 h, replicate 2): 46.34%
Population with increased mitochondrial mass (%) (1 µM, 24 h, replicate 2): 3.66%
Population with membrane disruption (%) (1 µM, 24 h, replicate 2): 8.54%
Cell count normalized to cells treated with DMSO control (1 µM, 48 h, replicate 1): 0.9623
Cell count per well (1 µM, 48 h, replicate 1): 146
Population Fragmented Nuclei (%) (1 µM, 48 h, replicate 1): 16.91%
Population Healthy Nuclei (%) (1 µM, 48 h, replicate 1): 63.97%
Population Pyknosed Nuclei (%) (1 µM, 48 h, replicate 1): 19.12%
Population apoptotic cell (%) (1 µM, 48 h, replicate 1): 76.92%
Population cell that influence microtubule strucutre (%) (1 µM, 48 h, replicate 1): 25.29%
Population with increased mitochondrial mass (%) (1 µM, 48 h, replicate 1): 4.60%
Population with membrane disruption (%) (1 µM, 48 h, replicate 1): 1.15%
Cell count normalized to cells treated with DMSO control (1 µM, 48 h, replicate 2): 1.056
Cell count per well (1 µM, 48 h, replicate 2): 172
Population Fragmented Nuclei (%) (1 µM, 48 h, replicate 2): 23.95%
Population Healthy Nuclei (%) (1 µM, 48 h, replicate 2): 59.28%
Population Pyknosed Nuclei (%) (1 µM, 48 h, replicate 2): 16.77%
Population apoptotic cell (%) (1 µM, 48 h, replicate 2): 75.00%
Population cell that influence microtubule strucutre (%) (1 µM, 48 h, replicate 2): 54.55%
Population with increased mitochondrial mass (%) (1 µM, 48 h, replicate 2): 5.05%
Population with membrane disruption (%) (1 µM, 48 h, replicate 2): 7.07%
cytotoxicity (1 μM, MRC-9): no cytotoxicity
Cell count normalized to cells treated with DMSO control (10 µM, 0 h, replicate 1): 1.081
Cell count per well (10 µM, 0 h, replicate 1): 162
Population Fragmented Nuclei (%) (10 µM, 0 h, replicate 1): 15.72%
Population Healthy Nuclei (%) (10 µM, 0 h, replicate 1): 65.41%
Population Pyknosed Nuclei (%) (10 µM, 0 h, replicate 1): 18.87%
Population apoptotic cell (%) (10 µM, 0 h, replicate 1): 33.33%
Population cell that influence microtubule strucutre (%) (10 µM, 0 h, replicate 1): 22.12%
Population with increased mitochondrial mass (%) (10 µM, 0 h, replicate 1): 9.62%
Population with membrane disruption (%) (10 µM, 0 h, replicate 1): 0.96%
Cell count normalized to cells treated with DMSO control (10 µM, 0 h, replicate 2): 0.8971
Cell count per well (10 µM, 0 h, replicate 2): 160
Population Fragmented Nuclei (%) (10 µM, 0 h, replicate 2): 22.07%
Population Healthy Nuclei (%) (10 µM, 0 h, replicate 2): 49.66%
Population Pyknosed Nuclei (%) (10 µM, 0 h, replicate 2): 28.28%
Population apoptotic cell (%) (10 µM, 0 h, replicate 2): 34.15%
Population cell that influence microtubule strucutre (%) (10 µM, 0 h, replicate 2): 44.44%
Population with increased mitochondrial mass (%) (10 µM, 0 h, replicate 2): 9.72%
Population with membrane disruption (%) (10 µM, 0 h, replicate 2): 5.56%
Cell count normalized to cells treated with DMSO control (10 µM, 12 h, replicate 1): 1.162
Cell count per well (10 µM, 12 h, replicate 1): 175
Population Fragmented Nuclei (%) (10 µM, 12 h, replicate 1): 18.93%
Population Healthy Nuclei (%) (10 µM, 12 h, replicate 1): 60.36%
Population Pyknosed Nuclei (%) (10 µM, 12 h, replicate 1): 20.71%
Population apoptotic cell (%) (10 µM, 12 h, replicate 1): 48.57%
Population cell that influence microtubule strucutre (%) (10 µM, 12 h, replicate 1): 53.92%
Population with increased mitochondrial mass (%) (10 µM, 12 h, replicate 1): 8.82%
Population with membrane disruption (%) (10 µM, 12 h, replicate 1): 1.96%
Cell count normalized to cells treated with DMSO control (10 µM, 12 h, replicate 2): 0.8225
Cell count per well (10 µM, 12 h, replicate 2): 137
Population Fragmented Nuclei (%) (10 µM, 12 h, replicate 2): 27.87%
Population Healthy Nuclei (%) (10 µM, 12 h, replicate 2): 49.18%
Population Pyknosed Nuclei (%) (10 µM, 12 h, replicate 2): 22.95%
Population apoptotic cell (%) (10 µM, 12 h, replicate 2): 25.00%
Population cell that influence microtubule strucutre (%) (10 µM, 12 h, replicate 2): 60.00%
Population with increased mitochondrial mass (%) (10 µM, 12 h, replicate 2): 5.00%
Population with membrane disruption (%) (10 µM, 12 h, replicate 2): 3.33%
Cell count normalized to cells treated with DMSO control (10 µM, 24 h, replicate 1): 1.1009
Cell count per well (10 µM, 24 h, replicate 1): 166
Population Fragmented Nuclei (%) (10 µM, 24 h, replicate 1): 25.32%
Population Healthy Nuclei (%) (10 µM, 24 h, replicate 1): 55.06%
Population Pyknosed Nuclei (%) (10 µM, 24 h, replicate 1): 19.62%
Population apoptotic cell (%) (10 µM, 24 h, replicate 1): 54.84%
Population cell that influence microtubule strucutre (%) (10 µM, 24 h, replicate 1): 45.98%
Population with increased mitochondrial mass (%) (10 µM, 24 h, replicate 1): 10.34%
Population with membrane disruption (%) (10 µM, 24 h, replicate 1): 1.15%
Cell count normalized to cells treated with DMSO control (10 µM, 24 h, replicate 2): 0.8977
Cell count per well (10 µM, 24 h, replicate 2): 148
Population Fragmented Nuclei (%) (10 µM, 24 h, replicate 2): 34.56%
Population Healthy Nuclei (%) (10 µM, 24 h, replicate 2): 47.06%
Population Pyknosed Nuclei (%) (10 µM, 24 h, replicate 2): 18.38%
Population apoptotic cell (%) (10 µM, 24 h, replicate 2): 40.00%
Population cell that influence microtubule strucutre (%) (10 µM, 24 h, replicate 2): 65.63%
Population with increased mitochondrial mass (%) (10 µM, 24 h, replicate 2): 9.38%
Population with membrane disruption (%) (10 µM, 24 h, replicate 2): 1.56%
Cell count normalized to cells treated with DMSO control (10 µM, 48 h, replicate 1): 1.1403
Cell count per well (10 µM, 48 h, replicate 1): 173
Population Fragmented Nuclei (%) (10 µM, 48 h, replicate 1): 22.56%
Population Healthy Nuclei (%) (10 µM, 48 h, replicate 1): 61.59%
Population Pyknosed Nuclei (%) (10 µM, 48 h, replicate 1): 15.85%
Population apoptotic cell (%) (10 µM, 48 h, replicate 1): 84.62%
Population cell that influence microtubule strucutre (%) (10 µM, 48 h, replicate 1): 40.59%
Population with increased mitochondrial mass (%) (10 µM, 48 h, replicate 1): 5.94%
Population with membrane disruption (%) (10 µM, 48 h, replicate 1): 0.00%
Cell count normalized to cells treated with DMSO control (10 µM, 48 h, replicate 2): 0.9149
Cell count per well (10 µM, 48 h, replicate 2): 149
Population Fragmented Nuclei (%) (10 µM, 48 h, replicate 2): 33.82%
Population Healthy Nuclei (%) (10 µM, 48 h, replicate 2): 56.62%
Population Pyknosed Nuclei (%) (10 µM, 48 h, replicate 2): 9.56%
Population apoptotic cell (%) (10 µM, 48 h, replicate 2): 46.15%
Population cell that influence microtubule strucutre (%) (10 µM, 48 h, replicate 2): 61.04%
Population with increased mitochondrial mass (%) (10 µM, 48 h, replicate 2): 6.49%
Population with membrane disruption (%) (10 µM, 48 h, replicate 2): 2.60%
impact on tubulin, mitochondrial mass, and cellular permeability in healthy cells (MRC-9, 1 μM (Figure 6)): comparable to that of the 0.1% DMSO control
